This is an account of results in patent EP4603546A1, “SOLID DISPERSION CONTAINING SUBSTANCE TO BE DISPERSED, PHARMACEUTICAL COMPOSITION CONTAINING SAME, AND PRODUCTION METHODS THEREFOR” (CHUGAI SEIYAKU KABUSHIKI KAISHA, priority 2022, dated 2024).

In brackets after ≈: the same amount, converted by molar mass. Numbered stars: 1 amine (or outer) side, 2 acyl side, 3 side chain; on linkers, the order of the positions; unused ones are H or OH. Bridge positions count the residues as written; N and C are the ends. Square brackets hold non-standard residues; d marks the D form. Peptide text beside a SMILES is read from it. * marks the point of attachment. hPhe(3,5-F2-4-CF3) = N[C@@H](CCc1cc(F)c(C(F)(F)F)c(F)c1)C(=O)O; hPhe(3-Cl-4-CF3) = N[C@@H](CCc1ccc(C(F)(F)F)c(Cl)c1)C(=O)O; NMePhe(4-CF3) = CN[C@@H](Cc1ccc(C(F)(F)F)cc1)C(=O)O; NEtPhe(4-Me) = CCN[C@@H](Cc1ccc(C)cc1)C(=O)O; NMePhe(4-Me) = CN[C@@H](Cc1ccc(C)cc1)C(=O)O; NMedβ3hAla = C[C@H](CC(=O)[*:2])N(C)[*:1]; NMeGly(cPent) = CN[C@H](C(=O)O)C1CCCC1; Pro(4,4-F2) = O=C(O)[C@@H]1CC(F)(F)CN1; NMeGly(cBu) = CN[C@H](C(=O)O)C1CCC1; NMeCha = CN[C@@H](CC1CCCCC1)C(=O)O; Hyp = O=C(O)[C@@H]1C[C@@H](O)CN1; NMeChg = CN[C@H](C(=O)O)C1CCCCC1; NMeI = CC[C@H](C)[C@H](NC)C(=O)O; NMeD = CN[C@@H](CC(=O)O)C(=O)O; NMeL = CN[C@@H](CC(C)C)C(=O)O; NMeA = CN[C@@H](C)C(=O)O; Pyrrolidide = C1CCN(*)C1; Ac5c = NC1(C(=O)O)CCCC1; Aze = O=C(O)[C@@H]1CCN1; Sar = CNCC(=O)O Some results are limits rather than exact numbers.

What is called solubility (thermodynamic) is the concentration in solution at equilibrium with solid.

The nature of this series: physchem. To be noted: pH 6.5, aqueous buffer. The method, then:
Solubility (unit: mg/mL) was calculated from the measured compound concentration. The HPLC conditions are as follows. Detector: ultraviolet absorption photometer (measurement wavelength: 230 nm) Column: stainless steel tube of 2.1 mm inner diameter, 5 cm long filled with 1.7 µm ethylene cross-linked hybrid particles for liquid chromatography Column temperature: constant temperature near 70°C Mobile phase A: water/trifluoroacetic acid mixed solution (2000/1) Mobile phase B: acetonitrile/trifluoroacetic acid mixed solution (2000/1) Liquid delivery of mobile phase: concentration gradient control by changing the mixing ratio of mobile phase A and mobile phase B as shown in Table 8 below [Table 8]
`CC[C@H](C)[C@@H]1NC(=O)[C@H](CC(C)C)N(C)C(=O)C[C@@H](C(=O)N2CCCC2)N(C)C(=O)[C@H]([C@@H](C)CC)N(C)C(=O)C2(CCCC2)NC(=O)[C@@H]2CCCN2C(=O)[C@H](CCc2ccc(C(F)(F)F)c(Cl)c2)NC(=O)CN(C)C(=O)[C@H](Cc2ccc(C)cc2)N(C)C(=O)[C@@H]2CCN2C(=O)[C@H](C)N(C)C1=O` [Compound III] ([NMeL]I[NMeA][Aze][NMePhe(4-Me)][Sar][hPhe(3-Cl-4-CF3)]P[Ac5c][NMeI][NMeD]-Pyrrolidide; lactam N-11): the solubility (thermodynamic) worked out at 10 µg/mL (≈ 6.96 µM).
With `CCO[C@@H]1C[C@H]2C(=O)NC3(CCCC3)C(=O)N(C)[C@@H]([C@@H](C)CC)C(=O)N(C)[C@H](C)CC(=O)N(C)[C@@H](CC(C)C)C(=O)N[C@@H]([C@@H](C)CC)C(=O)N(C)[C@@H](C)C(=O)N3CC[C@H]3C(=O)N(C)[C@@H](Cc3ccc(C(F)(F)F)cc3)C(=O)N(C)CC(=O)N[C@@H](CCc3ccc(C(F)(F)F)c(Cl)c3)C(=O)N2C1` [Compound II] (cyclo([Ac5c][NMeI][NMedβ3hAla][NMeL]I[NMeA][Aze][NMePhe(4-CF3)][Sar][hPhe(3-Cl-4-CF3)][Hyp](Et))), the thermodynamic solubility came to 1 µg/mL (≈ 0.689 µM).
Consider `CC[C@H](C)[C@@H]1NC(=O)[C@H](CC(C)C)N(C)C(=O)C[C@@H](C(=O)N(C)C)N(C)C(=O)[C@H]([C@@H](C)CC)N(C)C(=O)C2(CCCC2)NC(=O)[C@@H]2CCCN2C(=O)[C@H](CCc2ccc(C(F)(F)F)c(Cl)c2)NC(=O)CN(C)C(=O)[C@H](Cc2ccc(C)cc2)N(C)C(=O)[C@@H]2CCN2C(=O)[C@H](C)N(C)C1=O` [Compound IV] ([NMeL]I[NMeA][Aze][NMePhe(4-Me)][Sar][hPhe(3-Cl-4-CF3)]P[Ac5c][NMeI][NMeD]-NMe2; lactam N-11), for which the solubility (thermodynamic) was determined as 20 µg/mL (≈ 14.2 µM).
In the case of `CC[C@H](C)[C@@H]1NC(=O)[C@H](CC(C)C)N(C)C(=O)C[C@@H](C(=O)N(C)C)N(C)C(=O)[C@H](C2CCCC2)N(C)C(=O)C2(CCCC2)NC(=O)[C@@H]2CCCN2C(=O)[C@H](CCc2cc(F)c(C(F)(F)F)c(F)c2)NC(=O)CN(C)C(=O)[C@H](Cc2ccc(C)cc2)N(CC)C(=O)[C@@H]2CCN2C(=O)[C@H](C)N(C)C1=O` [Compound I] ([NMeL]I[NMeA][Aze][NEtPhe(4-Me)][Sar][hPhe(3,5-F2-4-CF3)]P[Ac5c][NMeGly(cPent)][NMeD]-NMe2; lactam N-11), the thermodynamic solubility is below 1 µg/mL.
As for `CC[C@H](C)[C@@H]1NC(=O)[C@H](C2CCC2)N(C)C(=O)C[C@@H](C(=O)N2CCCC2)N(C)C(=O)[C@H](C2CCCCC2)N(C)C(=O)C2(CCCC2)NC(=O)[C@@H]2CC(F)(F)CN2C(=O)[C@H](CCc2cc(F)c(C(F)(F)F)c(F)c2)NC(=O)CN(C)C(=O)[C@H](CC2CCCCC2)N(C)C(=O)CN(C)C(=O)CN(C)C1=O` [Compound V] ([NMeGly(cBu)]I[Sar][Sar][NMeCha][Sar][hPhe(3,5-F2-4-CF3)][Pro(4,4-F2)][Ac5c][NMeChg][NMeD]-Pyrrolidide; lactam N-11), the thermodynamic solubility was below 1 µg/mL.
